Like-named read-outs stand apart in the source and are kept apart here.
Key:
[1] = type: physicochemical; design: key to Spont. (spontaneity or bloom): E (excellent); G (good); F (fair); P (poor); details: for % Separation, 1 h / % Separation, 24 h: C = cream; for % Separation, 24 h, oil: O = oil separated, Tr = trace of oil

SMILES | Spont. (spontaneity or bloom) ([1]; 34 ppm water) | % Separation, 1 h ([1]; 34 ppm water) | % Separation, 24 h ([1]; 34 ppm water) | Spont. (spontaneity or bloom) ([1]; 1000 ppm water) | % Separation, 1 h ([1]; 1000 ppm water) | % Separation, 24 h ([1]; 1000 ppm water) | Emulsion stability, mL separation, 1 h (Adjuvant (anionic/nonionic) test sample) | Emulsion stability, mL separation, 24 h (Adjuvant (anionic/nonionic) test sample, Tr = trace) | Emulsion stability, mL separation, 1 h (Anionic test sample) | Emulsion stability, mL separation, 24 h (Anionic test sample) | sol (solubility) (Anionic test sample, 342 ppm water, 30° C.) | Emulsion stability, mL separation, 1 h (Nonionic test sample) | Emulsion stability, mL separation, 24 h (Nonionic test sample) | % Separation, 24 h, oil ([1]; 34 ppm water) | % Separation, 24 h, oil ([1]; 1000 ppm water)
C=CCCCCCCCC(=O)OC(CCCCCCCC(=O)[O-])CS(=O)(=O)[O-].[Na+].[Na+] (centres unmarked) [C10-32, C10 UFA SLA] | F | 3% | 3.9% | F | 2.5% | 3% | 0 mL | Tr | 0 mL | 0 mL | S | 1 mL | 1 mL | – | –
CCCCCCCCCC(=O)OC(CCCCCCCC(=O)OC)CS(=O)(=O)[O-].[Na+] (centres unmarked) [C10-35, C10 UME C10 FA (60:40) SLA] | F | 3% | 3% | F | 3.4% | 4% | – | – | – | – | – | – | – | – | –
CCCCCCCCCCCC(=O)OC(CCCCCCCC(=O)[O-])C(CC)S(=O)(=O)[O-].[Na+].[Na+] (centres unmarked) [C12-35, C12 UFA C12 FA (80:20) SLA] | F | 3.8% | 5 C, % | F | 3% | 4 C, % | – | – | – | – | – | – | – | Tr | Tr
CCCCCCCCCCCCCCCCCC(=O)OC(CCCCCCCC(=O)[O-])C(CC)S(=O)(=O)[O-].[Na+].[Na+] (centres unmarked) [C12-36, C12 UFA C18 FA (80:20) SLA] | F | 3.8% | 4.5 C, % | F | 3.6% | 4 C, % | – | – | – | – | – | – | – | Tr | Tr
CCCCCCCCCCCC(=O)OC(CCCCCCCC(=O)OC)C(CC)S(=O)(=O)[O-].[Na+] (centres unmarked) [C12-37, C12 UME C12 FA (60:40) SLA] | F | 3% | 4 C, % | F | 3% | 3 C, % | – | – | – | – | – | – | – | <1 O % | 1 O %
CCCCCCCCCC(=O)OC(CCCCCCCC(=O)OC)C(CCCCCCCC(=O)OC)S(=O)(=O)[O-].[Na+] (centres unmarked) [C18-63, DBE C10 FA (60:40) SLA] | F | 3.1% | 3 C, % | F | 3% | 2.5 C, % | – | – | – | – | – | – | – | 1 O % | 1 O %
CCCCCCCCCC(=O)OC(CCCCCCCC(=O)OC)C(CCCCCCCC(=O)OC)S(=O)(=O)[O-].[Na+] (centres unmarked) [C18-64, DBE C10 FA (75:25) SLA] | F− | 3.2% | 2.5 C, % | F− | 3.7% | 3 C, % | – | – | – | – | – | – | – | 1 O % | 1 O %

— patent US9598359B2, “Sulfonates from natural oil metathesis” (priority 2010, dated 2017)
